# In patent US8507431B2, “Methods for accelerating wound healing by administration of a preadipocyte modulator or an adipocyte modulator” (HealOr Ltd., priority 2003, dated 2013):
# “Also recorded” adds a separate entry of the source.
# How the values were obtained:
# [1] = test system: Full thickness wounds on the back of C57BL mice; experiment: Wound healing assay, full thickness incision wounds in mice; format: in vivo; conditions: for epidermal migration vs PBS control (K14 staining) / wound contraction vs PBS control / dermal contraction (both dermal wound sides in a single field, H&E): topical daily for 6 days; for epidermal migration vs PBS control (K14 staining) / wound contraction vs PBS control / dermal contraction (both dermal wound sides in a single field, H&E) / wound area compared with the buffer control (morphological analysis): GW9662 2 μM, adipsin 1 μM; for wound contraction vs PBS control / wound area compared with the buffer control (morphological analysis): troglitazone 100 μM; for dermal contraction (both dermal wound sides in a single field, H&E): control negative; for wound area compared with the buffer control (morphological analysis): topical daily for six days, insulin 10 nM, troglitazone 100 μM + insulin 10 nM
# Experimental: […] […] Wound biopsies were sampled, processed and analyzed morphologically and/or histochemically and/or immunohistochemically for various wound healing parameters, i.e., wound contraction, adipocytes migration and differentiation, epidermal migration, and epidermal closure.
# The wound area was measured and compared to untreated control wounds; and wound contraction was calculated as the percent reduction of the wound area.
# Wound biopsies were fixed in 4% paraformaldehyde then dehydrated in increasing concentrations of ethanol (50-100%). The dehydrated preparations were immersed first in xylene, then paraffin and xylene 1:1 solution, then in pure melted paraffin (60° C.). The paraffin blocks were then sectioned by a microtome and the sections were mounted on Super Frost^+™ slides.
# Paraffin embedded wound-section slides were incubated at 60° C. for 60 minutes and were de-parafinated by washing the slides twice with toluene (100%) for 10 minutes, then rehydrated in decreasing concentration of ethanol (100-50%) for 5 minutes each. The slides were stained with hematoxylin (ready to use solution) for 10 minutes, rinsed with water, stained with eosin (0.5% in DDW) for 5 minutes, and then washed with 70% ethanol by 2 quick immersions. Thereafter, the slides were dehydrated by washing once with 95% ethanol for 2 minutes, twice with 100% ethanol for 5 minutes, and twice with xylene (100%) for 10 minutes, then mounted with entellan (MERCK Darmstadt Germany).
# Paraffin embedded wound-section slides were de-parafinated as described for H&E staining above and incubated in blocking solution (5% BSA and 0.5% Tween 20™ in PBS) for 1 hour. The slides were then incubated with either anti-keratin 1 (1:500) or anti-keratin 14 (1:1000) antibody in blocking solution (5% BSA and 0.5% Tween 20™ in PBS) at 4° C. overnight. Thereafter, the slides were washed five times with washing buffer (5% Tween 20™ in PBS for K14 and 0.5% Tween 20™ in PBS for K1) followed by incubation with biotinilated goat anti-rabbit antibody (ZYMED Laboratories Inc.) suspended (1:200) in blocking solution (5% BSA and 0.5% Tween 20™ in PBS) for 1 hour at room temperature. The slides were then washed three times with washing buffer (5% Tween 20™ in PBS) followed by incubation with an enzyme streptavidin conjugate in blocking solution (1:300) for 1 hour at room temperature. Thereafter, the slides were washed twice with washing buffer (5% Tween 20™ in PBS) for 5 minutes, once with PBS for 5 minutes and once with TRIS buffer (0.05 M in PBS) for 5 minutes, followed by incubation in DAB reagent for color development. The reaction was terminated by immersing the slides in double distilled water followed by counterstaining with eosin (ICN, 0.5% in DDW). The slides were then washed with 70% ethanol by 2 quick immersions; dehydrated by washing once again with 95% ethanol for 2 minutes, twice with 100% ethanol for 5 minutes, and twice with xylene (100%) for 10 minutes; and mounted with entellan (MERCK Darmstadt Germany).
# The effect of inhibiting or enhancing the activity of PPARγ using PPARγ antogonist and agonist, respectively, on wound healing was also evaluated in vivo. […]
# The effect of adipsin (complementing Factor D, which is secreted from adipocytes) on wound healing was evaluated in vivo. […] The mice were sacrificed 6 days after wounding and the wounds were then analyzed. […] In addition, adipsin increased epidermal closure from about 15% to about 30%, and increased keratinocytes migration from about 30% to about 65%, as compared with the buffer control (FIG. 6).
# Full thickness 20 mm incision wounds were performed on 8-10 week old C57BL mice, 6 mice per group. The wounds were treated daily for 7 days with PBS (control), adiponectin (1 μg/ml) or visfatin (0.01 μg/ml). Skin biopsies were paraffin embedded and slide sections representing the widest area of the wound were prepared. Sections were then subjected to histochemical staining such as H&E and Masson Trichrome (collagen). […]
# primary keratinocytes = experiment: Keratinocytes migration (wound scratch) assay in vitro; format: cell-based, murine; conditions: for keratinocyte migration in scratch assay vs control and insulin: treated daily, 24 and 48 hrs
# Experimental: Primary keratinocytes were isolated from newborn skin as described in reference 18. Keratinocytes were cultured in Eagle's Minimal Essential Medium (EMEM) containing 8% Chelex (Chelex-100, BioRad) treated fetal bovine serum. To maintain a proliferative basal cell phenotype, the final Ca^2+ concentration was adjusted to 0.05 mM. Experiments were performed five to seven days after plating.
# Primary mouse keratinocytes were untreated or treated with, PPARγ antagonist GW9662 (μM) or PPARγ agonist troglitazone (μM). Wound Scratch Assay was performed 24 hours following treatment, and representative fields were photographed immediately after the wounding (Day 0) and 48 hours later (Day 2). The average of wound closure represented as percentage in comparison to the initial width of the wound scratch (% of wound closure).
# The effect of inhibiting or enhancing the activity of peroxisome proliferators-activated receptor gamma (PPARγ) on keratinocytes migration was evaluated utilizing the in vitro migration assay. Thus, primary keratinocytes were isolated and plated on 5 ml non-coated dishes until confluence in low Ca^2+ medium, and an artificial crossover scratch was formed in each dish with a 200 μm tip. Cells were either non-treated (control) or treated daily with PPARγ modulators.
# In order to test the effect of different adipokines on keratinocyte migration to close the wound gap, an in vitro scratch assay was used. Thus, primary keratinocytes were isolated and plated on 5 ml non-coated dishes until confluence in low Ca^2+ medium, and an artificial crossover scratch was formed in each dish with a 200 μm tip. Cells were either non-treated (control) or treated daily with insulin (0.1 unit/ml), hIL-4 (2 ng/ml), hIL-6 (0.2 ng/ml), leptin (4 μg/ml) or apelin (0.02 μg/ml or 0.2 μg/ml).
# (§1) Primary keratinocytes/fibroblasts were isolated and plated on 5 ml non-coated dishes until confluence in low Ca^2+ medium, and an artificial cross-over scratch was formed in each dish with a 200 μm tip. Then, cells were either non-treated or treated with visfatin (0.1 μg/ml or 0.0.1 μg/ml) or insulin (0.1 unit/ml) for up to 48 hrs.
# primary skin fibroblasts = experiment: Fibroblasts scratch migration assay in vitro; format: cell-based; conditions: 24 hrs; hIL-8 5 ng/ml, hIL-1β 0.2 ng/ml, hIL-4 2 ng/ml, apelin 0.2 μg/ml, adiponectin 1 μg/ml
# Experimental: Primary skin fibroblasts were isolated and plated on 5 ml non-coated dishes until confluence in low Ca^2+ medium, and an artificial crossover scratch was formed in each dish with a 200 μm tip. Cells were either non-treated (control) or treated with insulin (0.1 unit/ml), hIL-8 (5 ng/ml), hIL-1β (0.2 ng/ml), hIL-4 (2 ng/ml), apelin (0.2 μg/ml) or adiponectin (1 μg/ml); and collected after 24 hrs.
# as §1
# [2] = hIL-6 0.2 ng/ml, leptin 4 μg/ml, apelin 0.02 μg/ml
# [3] = C57BL mice, insulin 1 μM topical daily for six days, untreated about 60%
compound,measurement,setting,value
"O=C(Nc1ccccc1)c1cc([N+](=O)[O-])ccc1Cl [GW9662, 2-chloro-5-nitrobenzanilide, reference compound]",epidermal migration vs PBS control (K14 staining),[1],promoted; also recorded: migrating toward covering the wound gap
same,wound contraction vs PBS control,[1],promoted wound contraction
same,"dermal contraction (both dermal wound sides in a single field, H&E)",[1],positive dermal contraction
same,wound area compared with the buffer control (morphological analysis),[1],substantially smaller
same,keratinocytes migration in vitro vs untreated control,"primary keratinocytes; scratch with 200 μm tip, Day 2 (48 hours), GW9662 2 μM, troglitazone 100 μM",promoted keratinocytes migration
IL-1: adipokine hIL-1β,fibroblasts migration to close the wound gap vs non-treated and insulin,primary skin fibroblasts,promoted fibroblasts migration to completely close the wound gap
IL-6: adipokine hIL-6,keratinocyte migration in scratch assay vs control and insulin,primary keratinocytes; [2],not as significantly
IL-8: adipokine hIL-8,fibroblasts migration to close the wound gap vs non-treated and insulin,primary skin fibroblasts,smaller yet significant effect
adipsin,"epidermal closure, percent of wounds positive (K14)","[1]; adipsin 1 μM topical daily, buffer control about 15%",about 30%
same,"keratinocytes migration, percent of wounds positive (K14)","[1]; adipsin 1 μM topical daily, buffer control about 30%",about 65%
same,epidermal migration vs PBS control (K14 staining),[1],migrating toward covering the wound gap
same,wound contraction vs PBS control,[1],substantially promoted wound contraction
same,"dermal contraction (both dermal wound sides in a single field, H&E)",[1],positive dermal contraction
same,wound area compared with the buffer control (morphological analysis),[1],substantially smaller
same,keratinocytes migration in vitro (summary statement),primary keratinocytes; no concentration given,substantially accelerated keratinocytes migration in vitro
apelin,keratinocyte migration in scratch assay vs control and insulin,"primary keratinocytes; hIL-4 2 ng/ml, apelin 0.2 μg/ml",keratinocyte migration was highly significant
same,keratinocyte migration in scratch assay vs control and insulin,primary keratinocytes; [2],not as significantly
same,fibroblasts migration to close the wound gap vs non-treated and insulin,primary skin fibroblasts,promoted fibroblasts migration to completely close the wound gap
insulin [reference compound],"migrating keratinocytes observed across the wound gap, percent of wounds (K14 staining)",[1]; [3],about 90%
same,"recruited adipocytes present, percent of wounds (H&E staining)",[1]; [3],~80%
same,wound area compared with the buffer control (morphological analysis),[1],substantially smaller
leptin,keratinocyte migration in scratch assay vs control and insulin,primary keratinocytes; [2],not as significantly
